In assay [1] the test system is Wnt activity (Sp5-Luc reporter gene, SW480 colon carcinoma cells). The assay can be described thus: Screening assay for Wnt activity: Sp5-Luc reporter gene assay in SW480 cells. It is filed as cell-based, human. As to conditions: Homo sapiens; for EC50: overnight incubation; for inhibition at 10 µM: given for EC50 of >10 μM, read-out: percent inhibition at 10 μM. A digest of the protocol: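 SW480 cells stably transduced with a luciferase reporter driven by an Sp5 promoter of eight TCF/LEF sites were plated at 4,000 cells/well in 1% FBS medium. They were exposed overnight at 37° C to a 10-point 1:3 dilution series from 10 μM (0.1% DMSO). Luminescence was normalized to DMSO for four-parameter EC50, or percent inhibition at 10 μM.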

The subject of a further assay is SW480 colon cancer cells. The experiment in a line: Cell viability assay (CellTiter-Blue) in SW480 colon cancer cells. It is filed as cell-based, human. As to conditions: Homo sapiens; for EC50: 96 h, four days, CellTiter-Blue; for inhibition at 10 µM: given for EC50 of >10 μM, read-out: percent inhibition at 10 μM. A digest of the protocol: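 Approximately 2×10^3 SW480 cells per well are seeded with compound (8 points, threefold steps, top 10 μM) and incubated four days at 37 °C. CellTiter-Blue is then added for about 3 h and fluorescence read. Non-linear regression gives EC50; for values beyond 10 μM, percent inhibition at that concentration is listed.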

Assay [2] has as its system primary human fibroblasts derived from IPF patients (LL29 cells). The assay can be described thus: Inhibition of the fibrotic process: αSMA staining in TGF-β1 treated LL29 fibroblasts. It is filed as cell-based. As to conditions: Homo sapiens, Fibroblast; for EC50: 96 h, TGF-β1 20 ng/mL, 4 days, % αSMA positive cells; for inhibition at 10 µM: given for EC50 of >10 μM, TGF-β1, αSMA, read-out: percent inhibition at 10 μM. A digest of the protocol: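 IPF patient-derived LL29 fibroblasts in 1% FBS medium got compound (11-point, 10 μM to 1.87 nM, 0.1% DMSO) plus TGF-β1 20 ng/mL, 4 days at 37° C. αSMA-positive live cells (SYTOX-excluded) were imaged, normalized to TGF-β1 controls and fitted for EC50; % inhibition at 10 μM given when EC50 >10 μM.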

Broadly, the EC50 is the concentration giving half of the maximal effect. For `CCNCc1cncc(-c2cnc3[nH]nc(-c4cc5c(-c6cc(F)cc(NCCN(C)C)c6)cccc5[nH]4)c3c2)c1` [Compound 428, N^1-(3-(2-(5-(5-((Ethylamino)methyl)pyridin-3-yl)-1H-pyrazolo[3,4-b]pyridin-3-yl)-1H-indol-4-yl)-5-fluorophenyl)-N^2,N^2-dimethylethane-1,2-diamine], the EC50 in assay [1] was found to be 947 nM; in the assay with SW480 colon cancer cells it was 757 nM; in assay [2], 1250 nM.

Usually inhibition stands for the change of the read-out against control, counted positive when it falls. `CN1CCN(c2cccc3[nH]c(-c4n[nH]c5ncc(-c6cncnc6)cc45)cc23)CC1` [Compound 227, 3-(4-(4-Methylpiperazin-1-yl)-1H-indol-2-yl)-5-(pyrimidin-5-yl)-1H-pyrazolo[3,4-b]pyridine]: the EC50 in assay [1] was 4310 nM; with SW480 colon cancer cells, 8760 nM; in assay [2], over 10000 nM. Further, in assay [2], the inhibition at 10 µM amounted to 47.8%.

Regarding `CN(C)CCNc1cc(F)cc(-c2cccc3[nH]c(-c4n[nH]c5ncc(-c6cncc(NC(=O)C7CCC7)c6)cc45)cc23)c1` [Compound 443, N-(5-(3-(4-(3-((2-(Dimethylamino)ethyl)amino)-5-fluorophenyl)-1H-indol-2-yl)-1H-pyrazolo[3,4-b]pyridin-5-yl)pyridin-3-yl)cyclobutanecarboxamide], the EC50 in assay [1] was determined as 215 nM; with SW480 colon cancer cells it was 1220 nM; in assay [2] it was 990 nM.

On to `Fc1ccc(-c2cccc3[nH]c(-c4n[nH]c5ncc(-c6cncnc6)cc45)cc23)cc1` [Compound 47, 3-(4-(4-Fluorophenyl)-1H-indol-2-yl)-5-(pyrimidin-5-yl)-1H-pyrazolo[3,4-b]pyridine], for which the EC50 is 2740 nM in assay [1], over 10000 nM with SW480 colon cancer cells and 4960 nM in assay [2]. Besides, in the assay with SW480 colon cancer cells, the inhibition at 10 µM was 11.8%.

In the case of `Nc1cncc(-c2cnc3[nH]nc(-c4cc5c(-c6ccccc6F)cccc5[nH]4)c3c2)c1` [Compound 49, 5-(3-(4-(2-Fluorophenyl)-1H-indol-2-yl)-1H-pyrazolo[3,4-b]pyridin-5-yl) pyridin-3-amine], the EC50 is 99 nM in assay [1], 589 nM in the assay with SW480 colon cancer cells and 173 nM in assay [2].

As for `CN(C)CCNc1cc(F)cc(-c2cccc3[nH]c(-c4n[nH]c5ncc(-c6cncc(N)c6)cc45)cc23)c1` [Compound 425, N^1-(3-(2-(5-(5-Aminopyridin-3-yl)-1H-pyrazolo[3,4-b]pyridin-3-yl)-1H-indol-4-yl)-5-fluorophenyl)-N^2,N^2-dimethylethane-1,2-diamine], the EC50 turned out to be 293 nM in assay [1], 527 nM in the assay on SW480 colon cancer cells and 332 nM in assay [2].

Take `CCNCc1cncc(-c2cnc3[nH]nc(-c4cc5c(-c6ccccn6)cccc5[nH]4)c3c2)c1` [Compound 124, N-((5-(3-(4-(Pyridin-2-yl)-1H-indol-2-yl)-1H-pyrazolo[3,4-b]pyridin-5-yl)pyridin-3-yl)methyl)ethanamine]: the results for the EC50 (in assay [1]; in the assay with SW480 colon cancer cells; in assay [2]) were 7010 nM, 4910 nM and 1800 nM, respectively.

On to `Cc1ccncc1-c1cnc2[nH]nc(-c3cc4c(-c5cc(F)cc(CNS(C)(=O)=O)c5)cccc4[nH]3)c2c1` [Compound 455, N-(3-Fluoro-5-(2-(5-(4-methylpyridin-3-yl)-1H-pyrazolo[3,4-b]pyridin-3-yl)-1H-indol-4-yl)benzyl)methanesulfonamide], for which the EC50 in assay [1] is 300 nM; in the assay with SW480 colon cancer cells, over 10000 nM; in assay [2] it was over 10000 nM. Moreover, the inhibition at 10 µM came out at 8.7% in the assay with SW480 colon cancer cells and 43.9% in assay [2].

With `CC(C)CC(=O)Nc1cncc(-c2cnc3[nH]nc(-c4cc5c(N6CCN(C)CC6)cccc5[nH]4)c3c2)c1` [Compound 202, 3-Methyl-N-(5-(3-(4-(4-methylpiperazin-1-yl)-1H-indol-2-yl)-1H-pyrazolo[3,4-b]pyridin-5-yl)pyridin-3-yl)butanamide], the EC50 was 4470 nM in assay [1], 4840 nM with SW480 colon cancer cells and 2310 nM in assay [2].

In the case of `Fc1cccc(-c2cccc3[nH]c(-c4n[nH]c5ncc(-c6cncc(OCc7ccccc7)c6)cc45)cc23)c1` [Compound 520, 5-(5-(Benzyloxy)pyridin-3-yl)-3-(4-(3-fluorophenyl)-1H-indol-2-yl)-1H-pyrazolo[3,4-b]pyridine], the inhibition at 10 µM was found to be 18.2% in assay [1] and 13.3% with SW480 colon cancer cells. Further, the EC50 in assay [1] was over 10000 nM; in the assay on SW480 colon cancer cells, over 10000 nM; in assay [2], 9820 nM.

Regarding `CC(C)Nc1cncc(-c2cnc3[nH]nc(-c4cc5c(-c6cc(F)cc(NCCN(C)C)c6)cccc5[nH]4)c3c2)c1` [Compound 434, N^1-(3-Fluoro-5-(2-(5-(5-(isopropylamino)pyridin-3-yl)-1H-pyrazolo[3,4-b]pyridin-3-yl)-1H-indol-4-yl)phenyl)-N^2,N^2-dimethylethane-1,2-diamine], the EC50 in assay [1] is 312 nM; with SW480 colon cancer cells it was 394 nM; in assay [2] it was 1440 nM.

For the compound `CCCC(=O)Nc1cncc(-c2cnc3[nH]nc(-c4cc5c(-c6cccc(F)c6)cccc5[nH]4)c3c2)c1` [Compound 14, N-(5-(3-(4-(3-Fluorophenyl)-1H-indol-2-yl)-1H-pyrazolo[3,4-b]pyridin-5-yl)pyridin-3-yl)butyramide], the EC50 in assay [1] was 211 nM; in the assay with SW480 colon cancer cells it was over 10000 nM; in assay [2], over 10000 nM. Besides, the inhibition at 10 µM in the assay on SW480 colon cancer cells is 9.9%.

`Nc1cncc(-c2cnc3[nH]nc(-c4cc5c(-c6ccccn6)cccc5[nH]4)c3c2)c1` [Compound 121, 5-(3-(4-(Pyridin-2-yl)-1H-indol-2-yl)-1H-pyrazolo[3,4-b]pyridin-5-yl) pyridin-3-amine]: the EC50 came out at 174 nM in assay [1], 726 nM in the assay on SW480 colon cancer cells and 241 nM in assay [2].

Consider `c1cc(-c2ccncc2)c2cc(-c3n[nH]c4ncc(-c5ccncc5)cc34)[nH]c2c1` [Compound 111, 5-(Pyridin-4-yl)-3-(4-(pyridin-4-yl)-1H-indol-2-yl)-1H-pyrazolo[3,4-b]pyridine], for which the results for the inhibition at 10 µM (in assay [1]; with SW480 colon cancer cells) were 17.6% and 36.4%, respectively. Moreover, the results for the EC50 (in assay [1]; in the assay on SW480 colon cancer cells; in assay [2]) were over 10000 nM, over 10000 nM and 2770 nM, respectively.

Regarding `CC(C)CC(=O)Nc1cncc(-c2cnc3[nH]nc(-c4cc5c(-c6cc(F)cc(NCCN(C)C)c6)cccc5[nH]4)c3c2)c1` [Compound 424, N-(5-(3-(4-(3-((2-(Dimethylamino)ethyl)amino)-5-fluorophenyl)-1H-indol-2-yl)-1H-pyrazolo[3,4-b]pyridin-5-yl)pyridin-3-yl)-3-methylbutanamide], the EC50 in assay [1] is 304 nM; with SW480 colon cancer cells it was 376 nM; in assay [2], 350 nM.

As to `O=C(Nc1cncc(-c2cnc3[nH]nc(-c4cc5c(-c6ccc(F)cc6)cccc5[nH]4)c3c2)c1)c1ccccc1` [Compound 32, N-(5-(3-(4-(4-Fluorophenyl)-1H-indol-2-yl)-1H-pyrazolo[3,4-b]pyridin-5-yl)pyridin-3-yl)benzamide], the figures for the concentration giving a half-maximal response (EC50) (in assay [1]; with SW480 colon cancer cells; in assay [2]) were 2830 nM, over 10000 nM and 4950 nM, respectively. In addition, the inhibition at 10 µM with SW480 colon cancer cells came to 32.5%.

For the compound `CN1CCN(c2cccc3[nH]c(-c4n[nH]c5ncc(-c6cncc(CN7CCCCC7)c6)cc45)cc23)CC1` [Compound 215, 3-(4-(4-Methylpiperazin-1-yl)-1H-indol-2-yl)-5-(5-(piperidin-1-ylmethyl)pyridin-3-yl)-1H-pyrazolo[3,4-b]pyridine], the EC50 in assay [1] was 4750 nM; in the assay with SW480 colon cancer cells, 3520 nM; in assay [2], 1760 nM.

On to `CN(C)CCNc1cc(F)cc(-c2cccc3[nH]c(-c4n[nH]c5ncc(-c6cncnc6)cc45)cc23)c1` [Compound 449, N^1-(3-Fluoro-5-(2-(5-(pyrimidin-5-yl)-1H-pyrazolo[3,4-b]pyridin-3-yl)-1H-indol-4-yl)phenyl)-N^2,N^2-dimethylethane-1,2-diamine], for which the values for the EC50 (in assay [1]; in the assay with SW480 colon cancer cells; in assay [2]) were 2600 nM, 1300 nM and 1160 nM, respectively.

Turning to `Fc1ccc(-c2cccc3[nH]c(-c4n[nH]c5ncc(-c6cncc(CN7CCCCC7)c6)cc45)cc23)cc1` [Compound 36, 3-(4-(4-Fluorophenyl)-1H-indol-2-yl)-5-(5-(piperidin-1-ylmethyl)pyridin-3-yl)-1H-pyrazolo[3,4-b]pyridine], the EC50 in assay [1] is 3660 nM; in the assay on SW480 colon cancer cells, over 10000 nM; in assay [2] it was 2440 nM. The inhibition at 10 µM in the assay on SW480 colon cancer cells was 59.2%.

On to `CC(C)(C)C(=O)Nc1cncc(-c2cnc3[nH]nc(-c4cc5c(-c6cccnc6)cccc5[nH]4)c3c2)c1` [Compound 78, N-(5-(3-(4-(Pyridin-3-yl)-1H-indol-2-yl)-1H-pyrazolo[3,4-b]pyridin-5-yl)pyridin-3-yl)pivalamide], for which the EC50 is 634 nM in assay [1], 1730 nM in the assay on SW480 colon cancer cells and over 10000 nM in assay [2]. For the same compound, the inhibition at 10 µM in assay [2] was found to be 24.2%.

The record behind these values is US20180214428A1, “3-(1H-INDOL-2-YL)-1H-PYRAZOLO[3,4-B]PYRIDINES AND THERAPEUTIC USES THEREOF” (Samumed, LLC, priority 2015, published 2018).
